Each structure is given as a SMILES string.

Results on 10 molecules are retold here after patent US5591741A, “Fungicidal spiroheterocyclic derivatives” (American Cyanamid Company, priority 1993, dated 1997).

What all share (settings): Table VIa; host plants sprayed; solution of 400 ppm and dilutions
In one assay the test system is Venturis inaequalis. The assay is described as follows: In vivo fungicidal activity, Apple Scab (AS).
The test system of the next assay is Plasmopara viticola. Nature of the assay: In vivo fungicidal activity, Grape Downy Mildew (GDM). Also: ranges in brackets are in %.
The next assay relates to Botrytis cinerea. The assay is described as follows: In vivo fungicidal activity, Pepper Botrytis (PB). Also: ranges in brackets are in %.
In a further assay the test system is Pyricularia oryzae. In kind it is in vivo.
A further assay relates to Cercospora beticola. The assay is described as follows: In vivo fungicidal activity, Sugar Beet Cercospora (SBC). Also: ranges in brackets are in %.
The test system of another assay is Alternaria solani. The assay is described as follows: In vivo fungicidal activity, Tomato Early Blight (TEB). Also: ranges in brackets are in %.
Assay [1] deals with Erysiphe graminis f. sp. tritici. The assay is described as follows: In vivo fungicidal activity, Wheat Powdery Mildew (WPM).
Another assay has as its system Septoria nodorum. Nature of the assay: In vivo fungicidal activity, Wheat Blotch (WSN). Here is the method: Test compounds are dissolved in acetone and diluted with deionized water containing about 0.05% TWEEN 20®, a polyoxyethylene sorbitan monolaurate surfactant manufactured by Atlas Chemical Industries, to give a concentration of 400 ppm. Subsequent dilutions are made with an 0.05% aqueous solution of TWEEN 20®.
Host plants are sprayed with test solution, dried and inoculated with fungi. When disease symptom development is optimal, the plants are rated for disease control according to the rating scale shown below. Each test contains inoculated treated plants, inoculated untreated plants and a reference standard. When more than one test is run, the data are averaged.

On to `CCCCCC(C)NCCC1COC2(CCC(C(C)(C)C)CC2)C1` (centres unmarked) [Compound 194], for which the “disease control rating AS (Apple Scab)” value in the assay with Venturis inaequalis is 6 (75-89). Further, the “disease control rating GDM” value in the assay with Plasmopara viticola is given as 7 (90-95). Besides, the “disease control rating PB” value in the assay on Botrytis cinerea was 4 (45-59). The “disease control rating RB” value in the assay with Pyricularia oryzae is 0 (0). Moreover, the “disease control rating SBC” value in the assay with Cercospora beticola was 8 (96-99). The “disease control rating TEB” value in the assay on Alternaria solani is listed as 3 (30-44). Further, in assay [1], the “disease control rating WPM” value was 7 (90-95). In the assay with Septoria nodorum, the “disease control rating WSN” value is on record as 7 (90-95).

Consider `CC(C)(C)C1CCC2(CC1)CC(CCNC1CCCCCC1)CO2` (centres unmarked) [Compound 195], for which the “disease control rating AS (Apple Scab)” value in the assay with Venturis inaequalis is on record as 6 (75-89). Further, the “disease control rating GDM” value in the assay on Plasmopara viticola is 5 (60-74). Also, in the assay on Botrytis cinerea, the “disease control rating PB” value is listed as 5 (60-74). The “disease control rating RB” value with Pyricularia oryzae was 7 (90-95). Besides, the “disease control rating SBC” value in the assay with Cercospora beticola was 7 (90-95). Besides, in the assay on Alternaria solani, the “disease control rating TEB” value is 0 (0). In addition, the “disease control rating WPM” value in assay [1] is 7 (90-95). Besides, the “disease control rating WSN” value in the assay on Septoria nodorum is reported as 7 (90-95).

For the molecule `CCCCN(CCCC)CCC1COC2(CCC(C(C)(C)C)CC2)C1` (centres unmarked) [Compound 196], the “disease control rating AS (Apple Scab)” value in the assay with Venturis inaequalis is given as 5 (60-74). Besides, the “disease control rating GDM” value in the assay on Plasmopara viticola is 5 (60-74). For the same molecule, the “disease control rating PB” value with Botrytis cinerea is 5 (60-74). The “disease control rating RB” value in the assay with Pyricularia oryzae is on record as 6 (75-89). Besides, the “disease control rating SBC” value in the assay on Cercospora beticola is reported as 8 (96-99). In the assay on Alternaria solani, the “disease control rating TEB” value is on record as 0 (0). In assay [1], the “disease control rating WPM” value is listed as 9 (100). Besides, in the assay with Septoria nodorum, the “disease control rating WSN” value is 7 (90-95).

Turning to `CCCCC(CC)NCCC1COC2(CCC(C(C)(C)C)CC2)C1` (centres unmarked) [Compound 197], in the assay with Venturis inaequalis, the “disease control rating AS (Apple Scab)” value is 5 (60-74). In addition, the “disease control rating GDM” value with Plasmopara viticola was 7 (90-95). For the same molecule, the “disease control rating PB” value in the assay with Botrytis cinerea is on record as 8 (96-99). The “disease control rating RB” value in the assay on Pyricularia oryzae was 0 (0). Also, the “disease control rating SBC” value in the assay on Cercospora beticola was 7 (90-95). For the same molecule, in the assay with Alternaria solani, the “disease control rating TEB” value is given as 0 (0). Further, in assay [1], the “disease control rating WPM” value is on record as 8 (96-99). Besides, the “disease control rating WSN” value in the assay with Septoria nodorum is given as 7 (90-95).

Consider `CC(C)(C)C1CCC2(CC1)CC(CCNC1CCC3CCCCC3C1)CO2` (centres unmarked) [Compound 198], for which the “disease control rating AS (Apple Scab)” value with Venturis inaequalis is given as 6 (75-89). The “disease control rating GDM” value in the assay with Plasmopara viticola was 6 (75-89). Also, the “disease control rating PB” value in the assay with Botrytis cinerea is listed as 7 (90-95). Moreover, the “disease control rating RB” value with Pyricularia oryzae is listed as 0 (0). For the same molecule, the “disease control rating SBC” value in the assay with Cercospora beticola was 8 (96-99). Besides, the “disease control rating TEB” value in the assay with Alternaria solani is listed as 6 (75-89). For the same molecule, the “disease control rating WPM” value in assay [1] was 8 (96-99). Further, the “disease control rating WSN” value with Septoria nodorum is given as 8 (96-99).

Regarding `CN(CCC1COC2(CCC(C(C)(C)C)CC2)C1)C1CCCCC1` (centres unmarked) [Compound 199], the “disease control rating AS (Apple Scab)” value in the assay on Venturis inaequalis is 6 (75-89). The “disease control rating GDM” value with Plasmopara viticola is on record as 5 (60-74). The “disease control rating PB” value with Botrytis cinerea is listed as 7 (90-95). Also, the “disease control rating RB” value in the assay with Pyricularia oryzae is 0 (0). In addition, the “disease control rating SBC” value in the assay with Cercospora beticola is on record as 3 (30-44). Moreover, the “disease control rating TEB” value with Alternaria solani is recorded as 4 (45-59). The “disease control rating WPM” value in assay [1] is reported as 8 (96-99). Also, the “disease control rating WSN” value in the assay with Septoria nodorum is 7 (90-95).

Regarding `CCN(CCC1COC2(CCC(C(C)(C)C)CC2)C1)C1CCCCC1` (centres unmarked) [Compound 200], in the assay on Venturis inaequalis, the “disease control rating AS (Apple Scab)” value is listed as 7 (90-95). Also, the “disease control rating GDM” value in the assay on Plasmopara viticola is 5 (60-74). Moreover, the “disease control rating PB” value in the assay with Botrytis cinerea is given as 8 (96-99). Also, the “disease control rating RB” value with Pyricularia oryzae was 0 (0). The “disease control rating SBC” value with Cercospora beticola is recorded as 8 (96-99). In the assay on Alternaria solani, the “disease control rating TEB” value is 0 (0). Moreover, the “disease control rating WPM” value in assay [1] is given as 8 (96-99). For the same molecule, the “disease control rating WSN” value in the assay with Septoria nodorum was 8 (96-99).

Take `CCCCCC(C)N(C)CCC1COC2(CCC(C(C)(C)C)CC2)C1` (centres unmarked) [Compound 201]: in the assay on Venturis inaequalis, the “disease control rating AS (Apple Scab)” value is 6 (75-89). Besides, the “disease control rating GDM” value in the assay with Plasmopara viticola is listed as 7 (90-95). Also, the “disease control rating PB” value in the assay with Botrytis cinerea is 3 (30-44). Moreover, the “disease control rating RB” value in the assay with Pyricularia oryzae is reported as 0 (0). Besides, the “disease control rating SBC” value with Cercospora beticola is 6 (75-89). In addition, the “disease control rating TEB” value with Alternaria solani is reported as 0 (0). Moreover, the “disease control rating WPM” value in assay [1] is recorded as 8 (96-99). In the assay on Septoria nodorum, the “disease control rating WSN” value is on record as 5 (60-74).

As for `CCCCCC(C)N(CC)CCC1COC2(CCC(C(C)(C)C)CC2)C1` (centres unmarked) [Compound 202], the “disease control rating AS (Apple Scab)” value with Venturis inaequalis was 6 (75-89). Besides, the “disease control rating GDM” value with Plasmopara viticola is 5 (60-74). Further, the “disease control rating PB” value in the assay on Botrytis cinerea is given as 7 (90-95). The “disease control rating RB” value in the assay on Pyricularia oryzae is 0 (0). Further, the “disease control rating SBC” value with Cercospora beticola is 7 (90-95). Besides, the “disease control rating TEB” value in the assay on Alternaria solani is given as 0 (0). Further, the “disease control rating WPM” value in assay [1] was 8 (96-99). Besides, the “disease control rating WSN” value with Septoria nodorum is listed as 5 (60-74).

Consider `CC(C)(C)C1CCC2(CC1)CC(CCN1CCCCC1)CO2` (centres unmarked) [Compound 203], for which the “disease control rating AS (Apple Scab)” value in the assay with Venturis inaequalis is listed as 0 (0). Further, the “disease control rating GDM” value with Plasmopara viticola is 0 (0). In the assay with Botrytis cinerea, the “disease control rating PB” value was 8 (96-99). Also, in the assay with Pyricularia oryzae, the “disease control rating RB” value was 0 (0). In addition, in the assay with Cercospora beticola, the “disease control rating SBC” value is 8 (96-99). Besides, the “disease control rating TEB” value in the assay on Alternaria solani is given as 6 (75-89). Also, in assay [1], the “disease control rating WPM” value is given as 8 (96-99). In the assay with Septoria nodorum, the “disease control rating WSN” value is on record as 6 (75-89).
